Source: PMC5555199, “Mechanism of pathogen recognition by human dectin-2” (The Journal of Biological Chemistry, 2017)

Target: T1, untagged form of the CRD (human dectin-2) (Homo sapiens, UniProt Q6EIG7)
T1 construct: gene CLEC6A; extended C-type carbohydrate-recognition domain starting at Leu-64, preceded by Met-Ala; untagged; one monomer in the asymmetric unit
T1 sequence (Q6EIG7 64-209): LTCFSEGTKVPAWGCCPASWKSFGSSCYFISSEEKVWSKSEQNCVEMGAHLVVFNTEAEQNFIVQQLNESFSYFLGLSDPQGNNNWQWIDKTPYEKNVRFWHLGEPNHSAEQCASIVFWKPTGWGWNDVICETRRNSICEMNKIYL
Test: X-ray crystallography, […] Å
Type: binding
Conditions: pH 8.0, Ca2+; primary Ca2+ site plus adjacent secondary site; D1 and D2 branches at 50% occupancy each

CC(=O)N[C@H]1[C@H](O[C@H]2[C@H](O)[C@@H](NC(C)=O)C(O)O[C@@H]2CO)O[C@H](CO)[C@@H](O[C@@H]2O[C@H](CO[C@H]3O[C@H](CO[C@H]4O[C@H](CO)[C@@H](O)[C@H](O)[C@@H]4O[C@H]4O[C@H](CO)[C@@H](O)[C@H](O)[C@@H]4O)[C@@H](O)[C@H](O[C@H]4O[C@H](CO)[C@@H](O)[C@H](O)[C@@H]4O[C@H]4O[C@H](CO)[C@@H](O)[C@H](O)[C@@H]4O)[C@@H]3O)[C@@H](O)[C@H](O[C@H]3O[C@H](CO)[C@@H](O)[C@H](O)[C@@H]3O[C@H]3O[C@H](CO)[C@@H](O)[C@H](O)[C@@H]3O[C@H]3O[C@H](CO)[C@@H](O)[C@H](O)[C@@H]3O)[C@@H]2O)[C@@H]1O (stereo partly shown) [Man9GlcNAc2]
X-ray crystallography, 2.4 Å: crystals obtained with the untagged form of the CRD in combination with Man9GlcNAc2 oligosaccharide
